Measured values as given in US8802700B2 (Vertex Pharmaceuticals Incorporated, priority 2010, dated 2014).

These compounds were tested against T1, ΔF508-CFTR (Homo sapiens, UniProt P13569, DEL508-508) (assay: Membrane potential optical assay (FRET voltage-sensor dyes, VIPR), identification of potentiator compounds). Conditions: Table 3; assay not given.
T1 construct: expressed in transfected cells
Assay type: cell-based
Summary of the method: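 NIH3T3 mouse fibroblasts stably expressing ΔF508-CFTR, cultured 24 h at 27 °C, were loaded with FRET voltage dyes CC2-DMPE and DiSBAC2(3). Double-addition format: first addition of Cl⁻-free (gluconate) medium with or without compound; membrane-potential change read as fluorescence on VIPR II.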

T1 sequence (P13569 with tags, fused parts or gaps DEL508-508): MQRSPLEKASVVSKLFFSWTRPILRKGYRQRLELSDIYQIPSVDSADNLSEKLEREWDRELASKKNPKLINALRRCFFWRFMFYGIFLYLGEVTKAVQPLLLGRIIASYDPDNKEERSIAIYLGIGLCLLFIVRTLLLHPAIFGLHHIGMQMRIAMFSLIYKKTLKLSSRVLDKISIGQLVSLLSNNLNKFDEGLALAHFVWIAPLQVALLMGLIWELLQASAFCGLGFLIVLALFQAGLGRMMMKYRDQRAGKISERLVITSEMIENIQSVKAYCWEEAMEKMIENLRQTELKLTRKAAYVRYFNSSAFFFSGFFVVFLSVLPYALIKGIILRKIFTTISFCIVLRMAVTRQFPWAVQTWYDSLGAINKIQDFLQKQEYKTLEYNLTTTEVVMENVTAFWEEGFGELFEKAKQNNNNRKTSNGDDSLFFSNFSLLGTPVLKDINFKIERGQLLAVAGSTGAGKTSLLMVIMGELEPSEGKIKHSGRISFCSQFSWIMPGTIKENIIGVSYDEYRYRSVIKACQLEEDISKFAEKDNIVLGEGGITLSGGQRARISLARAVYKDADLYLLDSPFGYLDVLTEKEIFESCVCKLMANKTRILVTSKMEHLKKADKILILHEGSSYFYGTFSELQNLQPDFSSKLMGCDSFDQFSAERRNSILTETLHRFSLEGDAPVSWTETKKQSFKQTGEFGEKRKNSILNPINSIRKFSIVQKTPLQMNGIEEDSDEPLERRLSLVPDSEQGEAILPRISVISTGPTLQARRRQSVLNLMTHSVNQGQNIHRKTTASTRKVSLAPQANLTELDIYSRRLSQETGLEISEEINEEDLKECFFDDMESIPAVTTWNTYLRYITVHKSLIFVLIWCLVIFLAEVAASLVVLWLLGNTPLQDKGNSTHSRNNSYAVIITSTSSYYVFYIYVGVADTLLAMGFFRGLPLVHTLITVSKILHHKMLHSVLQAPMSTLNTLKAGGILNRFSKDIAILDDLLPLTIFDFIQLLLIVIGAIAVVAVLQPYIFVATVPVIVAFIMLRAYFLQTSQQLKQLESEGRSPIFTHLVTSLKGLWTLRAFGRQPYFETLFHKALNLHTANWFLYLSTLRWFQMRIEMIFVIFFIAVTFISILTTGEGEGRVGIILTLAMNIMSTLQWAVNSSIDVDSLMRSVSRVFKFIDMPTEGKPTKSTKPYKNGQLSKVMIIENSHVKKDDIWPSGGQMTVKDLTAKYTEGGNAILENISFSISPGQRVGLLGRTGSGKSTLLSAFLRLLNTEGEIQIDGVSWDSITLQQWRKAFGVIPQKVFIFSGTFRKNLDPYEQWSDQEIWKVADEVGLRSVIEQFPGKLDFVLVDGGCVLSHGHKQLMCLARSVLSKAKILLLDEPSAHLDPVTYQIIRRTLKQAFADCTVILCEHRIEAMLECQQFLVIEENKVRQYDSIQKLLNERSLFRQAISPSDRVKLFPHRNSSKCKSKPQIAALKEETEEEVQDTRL

Row | EC50 [µM] | Structure (SMILES)
1 | < 10 | O=C(Nc1ccccc1-c1cccc(F)c1)c1c[nH]c2ccccc2c1=O [Compound 277, N-[2-(3-fluorophenyl)phenyl]-4-oxo-1H-quinoline-3-carboxamide]

Same assay, conditions: Table 3; assay not given; read-out: % Activity (% Efficacy, relative efficacy)

Row | Structure (SMILES) | Emax [%]
2 | N#CCc1c[nH]c2cc(NC(=O)c3c[nH]c4ccccc4c3=O)ccc12 [Compound 96, N-[3-(cyanomethyl)-1H-indol-6-yl]-4-oxo-1H-quinoline-3-carboxamide] | 25 to 100
3 | Cc1cc(C2CCCCC2)ccc1NC(=O)c1c[nH]c2ccccc2c1=O [Compound 647, N-(4-cyclohexyl-2-methyl-phenyl)-4-oxo-1H-quinoline-3-carboxamide] | 25 to 100
4 | O=C(Nc1cc(O)c(Cl)cc1F)c1c[nH]c2ccccc2c1=O [Compound 695, N-(4-chloro-2-fluoro-5-hydroxy-phenyl)-4-oxo-1H-quinoline-3-carboxamide] | 25 to 100
5 | CCc1cccc(NC(=O)c2c[nH]c3ccccc3c2=O)n1 [Compound 125, N-(6-ethyl-2-pyridyl)-4-oxo-1H-quinoline-3-carboxamide] | 25 to 100
6 | Cc1cc2cc(NC(=O)c3c[nH]c4ccccc4c3=O)ccc2[nH]1 [Compound 230, N-(2-methyl-1H-indol-5-yl)-4-oxo-1H-quinoline-3-carboxamide] | 25 to 100
7 | CCc1ccccc1NC(=O)c1c[nH]c2ccccc2c1=O [Compound 72, N-(2-ethylphenyl)-4-oxo-1H-quinoline-3-carboxamide] | 25 to 100
8 | O=C(Nc1ccc2c(c1)NCC2)c1c[nH]c2ccccc2c1=O [Compound 258, N-Indolin-6-yl-4-oxo-1H-quinoline-3-carboxamide] | 25 to 100
9 | CC(C)(C)c1c[nH]c2cc(NC(=O)c3c[nH]c4cccc(O)c4c3=O)ccc12 [Compound 535, 5-hydroxy-4-oxo-N-(3-tert-butyl-1H-indol-6-yl)-1H-quinoline-3-carboxamide] | 25 to 100
10 | O=C(Nc1cnc2ccccc2c1)c1c[nH]c2ccccc2c1=O [Compound 75, 4-oxo-N-(3-quinolyl)-1H-quinoline-3-carboxamide] | < 25
11 | Cc1cc(C(C)(C)C)c(O)cc1NC(=O)c1c[nH]c2ccccc2c1=O [Compound 518, N-(5-hydroxy-2-methyl-4-tert-butyl-phenyl)-4-oxo-1H-quinoline-3-carboxamide] | 25 to 100
12 | O=C(Nc1cccc(S(=O)(=O)N2CCOCC2)c1)c1c[nH]c2ccccc2c1=O [Compound 185, N-(3-morpholinosulfonylphenyl)-4-oxo-1H-quinoline-3-carboxamide] | < 25
13 | O=C(Nc1ccc(C(F)(F)F)cc1Cl)c1c[nH]c2cccc(O)c2c1=O [Compound 635, N-[2-chloro-4-(trifluoromethyl)phenyl]-5-hydroxy-4-oxo-1H-quinoline-3-carboxamide] | 25 to 100
14 | O=C(Nc1ccccc1N1CCN(C(=O)c2ccccc2)CC1)c1c[nH]c2ccccc2c1=O [Compound 321, N-[2-(4-benzoylpiperazin-1-yl)phenyl]-4-oxo-1H-quinoline-3-carboxamide] | 25 to 100
15 | Cn1cnnc1-c1ccc(NC(=O)c2c[nH]c3ccccc3c2=O)cc1 [Compound 301, N-[4-(4-methyl-4H-1,2,4-triazol-3-yl)phenyl]-4-oxo-1H-quinoline-3-carboxamide] | < 25
16 | CN(C)c1cccc(NC(=O)c2c[nH]c3ccccc3c2=O)c1 [Compound 418, N-(3-dimethylaminophenyl)-4-oxo-1H-quinoline-3-carboxamide] | 25 to 100
17 | Cn1ccc2ccc(NC(=O)c3c[nH]c4ccccc4c3=O)cc21 [Compound 169, N-(1-methyl-1H-indol-6-yl)-4-oxo-1H-quinoline-3-carboxamide] | 25 to 100
18 | CC(C)c1ccc(NC(=O)c2c[nH]c3ccccc3c2=O)cn1 [Compound 235, N-(6-isopropyl-3-pyridyl)-4-oxo-1H-quinoline-3-carboxamide] | 25 to 100
19 | CC(C)(C)c1cc2cc[nH]c2cc1NC(=O)c1c[nH]c2cccc(O)c2c1=O [Compound 500, 5-hydroxy-4-oxo-N-(5-tert-butyl-1H-indol-6-yl)-1H-quinoline-3-carboxamide] | 25 to 100
20 | COC(=O)Nc1cc(NC(=O)c2c[nH]c3ccccc3c2=O)ccc1C(C)(C)C [Compound 14, [5-[(4-oxo-1H-quinolin-3-yl)carbonylamino]-2-tert-butyl-phenyl]aminoformic acid methyl ester] | 25 to 100
21 | O=C(Nc1ccc(Oc2cccnc2)cc1)c1c[nH]c2ccccc2c1=O [Compound 614, 4-oxo-N-[4-(3-pyridyloxy)phenyl]-1H-quinoline-3-carboxamide] | 25 to 100
22 | COC(=O)C1CCCCN1c1ccc(NC(=O)c2c[nH]c3ccccc3c2=O)c(C(F)(F)F)c1 (stereo not shown) [Compound 492, methyl 1-[4-[(4-oxo-1H-quinolin-3-yl)carbonylamino]-3-(trifluoromethyl)phenyl]piperidine-2-carboxylate] | > 100
23 | CC(=O)N1CCc2ccc(NC(=O)c3c[nH]c4ccccc4c3=O)cc21 [Compound 233, N-(1-acetylindolin-6-yl)-4-oxo-1H-quinoline-3-carboxamide] | < 25
24 | O=C(Nc1ccccc1C(O)c1ccccc1)c1c[nH]c2ccccc2c1=O (stereo not shown) [Compound 228, N-[2-(hydroxy-phenyl-methyl)phenyl]-4-oxo-1H-quinoline-3-carboxamide] | 25 to 100
25 | CC(C)(C)OC(=O)NCCc1c[nH]c2cc(NC(=O)c3c[nH]c4ccccc4c3=O)ccc12 [Compound 352, 2-[6-[(4-oxo-1H-quinolin-3-yl)carbonylamino]-1H-indol-3-yl]ethylaminoformic acid tert-butyl ester] | 25 to 100
26 | CCC(C)c1ccccc1NC(=O)c1c[nH]c2ccccc2c1=O (stereo not shown) [Compound 142, 4-oxo-N-(2-sec-butylphenyl)-1H-quinoline-3-carboxamide] | 25 to 100
27 | CC(C)(C)c1ccc(O)cc1NC(=O)c1c[nH]c2ccccc2c1=O [Compound 662, N-(5-hydroxy-2-tert-butyl-phenyl)-4-oxo-1H-quinoline-3-carboxamide] | > 100
28 | O=C(Nc1ccccc1OCc1ccccc1)c1c[nH]c2ccccc2c1=O [Compound 240, N-(2-benzyloxyphenyl)-4-oxo-1H-quinoline-3-carboxamide] | 25 to 100
29 | O=C(Nc1ccccc1C(F)(F)F)c1c[nH]c2ccccc2c1=O [Compound 111, 4-oxo-N-[2-(trifluoromethyl)phenyl]-1H-quinoline-3-carboxamide] | 25 to 100
30 | CC(C)c1ccc(NC(=O)c2c[nH]c3cccc(O)c3c2=O)cc1O [Compound 587, 5-hydroxy-N-(3-hydroxy-4-isopropyl-phenyl)-4-oxo-1H-quinoline-3-carboxamide] | 25 to 100
31 | CC(=O)Nc1cc(NC(=O)c2c[nH]c3ccccc3c2=O)ccc1C [Compound 248, N-(3-Acetylamino-4-methyl-phenyl)-4-oxo-1H-quinoline-3-carboxamide] | 25 to 100

Other lines, results leading:

Row | Emax [%] | Structure (SMILES)
32 | 25 to 100 | Cc1csc(-c2ccccc2NC(=O)c2c[nH]c3ccccc3c2=O)c1 [Compound 151, N-[2-(4-methyl-2-thienyl)phenyl]-4-oxo-1H-quinoline-3-carboxamide]
33 | 25 to 100 | O=C(Nc1ccc(N2CCC[C@@H]2C(=O)O)cc1C(F)(F)F)c1c[nH]c2ccccc2c1=O [Compound 698, (R)-1-[4-[(4-oxo-1H-quinolin-3-yl)carbonylamino]-3-(trifluoromethyl)phenyl]pyrrolidine-2-carboxylic acid]
34 | 25 to 100 | COc1ccc(NC(=O)c2c[nH]c3ccccc3c2=O)cc1 [Compound 439, N-(4-methoxyphenyl)-4-oxo-1H-quinoline-3-carboxamide]
35 | 25 to 100 | CCc1cc(C(C)(C)C)c(O)cc1NC(=O)c1c[nH]c2cccc(O)c2c1=O [Compound 507, N-(2-ethyl-5-hydroxy-4-tert-butyl-phenyl)-5-hydroxy-4-oxo-1H-quinoline-3-carboxamide]
36 | 25 to 100 | COc1ccc(Cl)cc1-c1ccccc1NC(=O)c1c[nH]c2ccccc2c1=O [Compound 202, N-[2-(5-chloro-2-methoxy-phenyl)phenyl]-4-oxo-1H-quinoline-3-carboxamide]
37 | 25 to 100 | CCCCc1ccccc1NC(=O)c1c[nH]c2ccccc2c1=O [Compound 336, N-(2-butylphenyl)-4-oxo-1H-quinoline-3-carboxamide]
38 | < 25 | O=C(Nc1ccc2nc(-c3ccccc3)[nH]c2c1)c1c[nH]c2ccccc2c1=O [Compound 73, 4-oxo-N-(2-phenyl-3H-benzoimidazol-5-yl)-1H-quinoline-3-carboxamide]
39 | 25 to 100 | O=C(Nc1ccc(Oc2ccccc2)cc1)c1c[nH]c2ccccc2c1=O [Compound 267, 4-oxo-N-(4-phenoxyphenyl)-1H-quinoline-3-carboxamide]
40 | 25 to 100 | O=C(Nc1ccc2ccccc2c1)c1c[nH]c2ccccc2c1=O [Compound 481, N-(2-naphthyl)-4-oxo-1H-quinoline-3-carboxamide]
41 | 25 to 100 | O=C(Nc1ccc(OC(F)(F)F)cc1Cl)c1c[nH]c2ccccc2c1=O [Compound 628, N-[2-chloro-4-(trifluoromethoxy)phenyl]-4-oxo-1H-quinoline-3-carboxamide]
42 | > 100 | O=C(Nc1ccccc1-c1cccc(F)c1)c1c[nH]c2ccccc2c1=O [Compound 277, N-[2-(3-fluorophenyl)phenyl]-4-oxo-1H-quinoline-3-carboxamide]
43 | 25 to 100 | CC(C)Cc1ccc(-c2ccccc2NC(=O)c2c[nH]c3ccccc3c2=O)cc1 [Compound 391, N-[2-(4-isobutylphenyl)phenyl]-4-oxo-1H-quinoline-3-carboxamide]
44 | 25 to 100 | O=C(Nc1cc2[nH]ccc2cc1-c1cccnc1)c1c[nH]c2ccccc2c1=O [Compound 65, 4-oxo-N-[5-(3-pyridyl)-1H-indol-6-yl]-1H-quinoline-3-carboxamide]
45 | < 25 | Cc1ccc(-c2ccccc2)cc1NC(=O)c1c[nH]c2ccccc2c1=O [Compound 454, N-(2-methyl-5-phenyl-phenyl)-4-oxo-1H-quinoline-3-carboxamide]
46 | 25 to 100 | Cc1ccc2cccc(NC(=O)c3c[nH]c4ccccc4c3=O)c2n1 [Compound 364, N-(2-methyl-8-quinolyl)-4-oxo-1H-quinoline-3-carboxamide]
